Like-named read-outs stand apart in the source and are kept apart here.

The target in test [1] is cathepsin D (Homo sapiens, UniProt P07339). Description: Inhibition of cathepsin D catalytic activity (Ki). It is filed as biochemical. The following applies: pH 4.0, 37° C., read-out: CDK. How it is done: A substrate peptide NH3-ELDLAVEFWHDR-CO2 (SEQ ID NO.:1) (used for inhibition assay of memapsin 2, memapsin 1, and cathepsin D) was dissolved at 2 mg/ml in DMSO and diluted 1:100 in 0.1 M sodium acetate, pH 4.0 just prior to assay. Inhibitor dissolved in DMSO was diluted into 0.1 M sodium acetate, pH 4.0 (1:100 dilution). A […] aliquot of the inhibitor solution in pH 4 buffer was combined with […] of 0.1 M sodium acetate containing 100-200 nM of memapsin 1, memapsin 2, or cathepsin D. Following a pre-incubation at 37° C., the proteolytic assay was initated by addition of […] of the substrate diluted into pH 4 buffer, and incubation continued at 37° C. Aliquots were removed at time intervals, and combined with an equal volume of MALDI-TOF matrix (α-hydroxycinnamic acid in acetone, 20 mg/ml) and immediately spotted in duplicate onto a stainless-steel MALDI sample plate. MALDI-TOF mass spectrometry was performed on a PE Biosystems Voyager DE instrument at the Molecular Biology Resource Center on campus. The instrument was operated at 25,000 accelerating volts in positive mode with a 150 ns delay. Ions with a mass-to-charge ratio (m/z) were detected in the range of 650-2000 atomic mass units. Data were analyzed by the Voyager Data Explorer module to obtain ion intensity data for mass species of substrates and corresponding products in a given mixture. Relative product formation was calculated as the ratio of signal intensity of the product to the sum of signal intensities of both product and the corresponding substrate. Relative product formed per unit time was obtained from non-linear regression analysis of the data representing the initial 15% formation of product using the model: 1−e^−kT, where k was the relative hydrolytic rate constant and T was time in seconds. Alternatively, relative hydrolytic rates were determined using a fluorogenic cleavage assay (Ermolieff, J. et al., Biochemistry, 39: 12450-12456 (2000)). Initial rates from either method were expressed relative to uninhibited controls and the inhibition constant Ki was determined by a non-linear fit to a tight-binding model of competitive inhibition (Bieth, J., Bayer-Symposium V: Proteinase Inhibitors, pp 463-469, Spinger-Varlag, Berlin (1994)). Results are shown in Table 1 above (M2K, CDK, and M1K columns represent, respectively, the K1 values obtained for memapsin 2, cathepsin D and memapsin 1).
Sequence of cathepsin D (P07339 65-412, species assumed): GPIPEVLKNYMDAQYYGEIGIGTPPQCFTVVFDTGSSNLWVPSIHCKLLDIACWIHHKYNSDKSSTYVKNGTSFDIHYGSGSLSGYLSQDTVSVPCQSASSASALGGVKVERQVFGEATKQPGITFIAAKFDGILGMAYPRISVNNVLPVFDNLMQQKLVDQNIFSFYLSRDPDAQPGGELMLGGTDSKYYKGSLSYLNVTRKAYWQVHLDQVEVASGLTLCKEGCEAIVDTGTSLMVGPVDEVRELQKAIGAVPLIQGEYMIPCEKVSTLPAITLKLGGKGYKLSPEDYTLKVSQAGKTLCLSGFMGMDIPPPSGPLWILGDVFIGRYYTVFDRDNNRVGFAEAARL

The test system of test [2] is Aβ production in Chinese hamster ovary cells that over-express human APP695 with the London and Swedish mutations. Put plainly: Cellular Aβ IC50 determination (Aβ40 sandwich ELISA). Conditions: 24 h. In general terms: In an ELISA, binding on a coated surface is turned into a signal by an enzyme label.
Test [3] addresses memapsin 2 (Homo sapiens, UniProt P56817). Put plainly: Inhibition of memapsin 2 catalytic activity (Ki). It is filed as biochemical. Conditions: memapsin 2, pH 4, 37° C. The essentials: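 Run at 37 °C and pH 4: compound and enzyme pre-incubated 20 min before FS-2 fluorogenic substrate started hydrolysis,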
Setting [4] is: Cricetulus griseus, CHO, read-out: Cell, Aβ40, CHO cells over-expressing human APP695 (London and Swedish mutations), 24 h.
Where [5] appears, read: Cricetulus griseus, CHO, read-out: Cell.

Sequence of memapsin 2 (P56817 46-501): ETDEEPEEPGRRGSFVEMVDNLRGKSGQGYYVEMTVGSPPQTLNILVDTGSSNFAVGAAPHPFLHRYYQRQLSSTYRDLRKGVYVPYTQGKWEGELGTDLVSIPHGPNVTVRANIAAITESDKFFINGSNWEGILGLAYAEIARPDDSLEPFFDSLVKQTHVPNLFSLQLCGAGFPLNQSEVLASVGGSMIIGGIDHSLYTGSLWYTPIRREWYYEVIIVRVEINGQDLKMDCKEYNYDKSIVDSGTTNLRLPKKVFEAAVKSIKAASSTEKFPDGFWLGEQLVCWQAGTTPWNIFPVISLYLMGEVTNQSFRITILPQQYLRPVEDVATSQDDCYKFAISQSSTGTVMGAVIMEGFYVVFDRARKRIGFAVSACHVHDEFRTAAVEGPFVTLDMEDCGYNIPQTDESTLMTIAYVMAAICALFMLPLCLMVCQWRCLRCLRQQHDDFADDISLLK

In the case of `CC(NC(=O)c1cc(C(=O)NC(Cc2ccccc2)C(O)CNCc2cncc(F)c2)cc(N(C)S(C)(=O)=O)c1)c1ccccc1` (stereo not drawn) [N1-(4-((5-fluoropyridin-3-yl)methylamino)-3-hydroxy-1-phenylbutan-2-yl)-5-(N-methylmethylsulfonamido)-N3-(1-phenylethyl)isophthalamide], the Ki in test [1] and in test [3] (read-out: M2K) was less than 300 nM each time. The IC50 in test [2] (setting [4]) is less than 1000 nM.
For “4- or 6-fluoro-N3-(3-hydroxy-4-(3-methoxybenzylamino)-1-phenylbutan-2-yl)-N1-(1-phenylethyl)isophthalamide”, the Ki in test [1] is less than 300 nM; in test [3] (read-out: M2K), more than 501 nM.
With `CC(NCC(O)C(Cc1ccccc1)NC(=O)c1cc(C(=O)NC(C)c2ccccc2)cc(N(C)S(C)(=O)=O)c1)c1cccc(F)c1` (stereo not drawn) [N1-(4-(1-(3-fluorophenyl)ethylamino)-3-hydroxy-1-phenylbutan-2-yl)-5-(N-methylmethylsulfonamido)-N3-(1-phenylethyl)isophthalamide], the Ki in test [1] and in test [3] (read-out: M2K) was less than 300 nM throughout.
In the case of `COc1cccc(CCNCC(O)C(Cc2ccccc2)NC(=O)c2cc(C(=O)NC(C)c3ccccc3)cc(N(C)S(C)(=O)=O)c2)c1` (stereo not drawn) [N1-(3-hydroxy-4-(3-methoxyphenethylamino)-1-phenylbutan-2-yl)-5-(N-methylmethylsulfonamido)-N3-(1-phenylethyl)isophthalamide], the Ki in test [1] and in test [3] (read-out: M2K) was less than 300 nM in each case.
Turning to `CNc1cccc(CNCC(O)C(Cc2ccccc2)NC(=O)c2cc(C(=O)NC(C)c3ccccc3)cc(N(C)S(C)(=O)=O)c2)c1` (stereo not drawn) [N1-(3-hydroxy-4-(3-(methylamino)benzylamino)-1-phenylbutan-2-yl)-5-(N-methylmethylsulfonamido)-N3-(1-phenylethyl)isophthalamide], the Ki in test [1] is less than 300 nM.
As for `Cc1csc(CN(C)C(=O)c2cccc(C(=O)NC(Cc3ccccc3)C(O)CNCc3cccc(CC(C)C)c3)c2)n1` (stereo not drawn) [N1-(3-hydroxy-4-(3-isobutylbenzylamino)-1-phenylbutan-2-yl)-N3-methyl-N3-((4-methylthiazol-2-yl)methyl)isophthalamide], the IC50 in test [2] (setting [4]) was less than 1000 nM. For the same compound, in test [3] (read-out: M2K), the Ki is less than 300 nM.
The corresponding values for `COc1cccc(CNCC(O)C(Cc2ccccc2)NC(=O)c2cc(C(=O)NC(C)c3nccs3)cc(N(C)S(C)(=O)=O)c2)c1` (stereo not drawn) [N1-(3-hydroxy-4-(3-methoxybenzylamino)-1-phenylbutan-2-yl)-5-(N-methylmethylsulfonamido)-N3-(1-(thiazol-2-yl)ethyl)isophthalamide] are less than 1000 nM and less than 300 nM.
Take `CC(NC(=O)c1cc(C(=O)NC(Cc2ccccc2)C(O)CNCc2cccn2COCC[Si](C)(C)C)cc(N(C)S(C)(=O)=O)c1)c1ccccc1` (stereo not drawn) [N1-(3-hydroxy-1-phenyl-4-((1-((2-(trimethylsilyl)ethoxy)methyl)-1H-pyrrol-2-yl)methylamino)butan-2-yl)-5-(N-methylmethylsulfonamido)-N3-(1-phenylethyl)isophthalamide]: the IC50 in test [2] (setting [5]) was less than 1000 nM. Besides, the Ki in test [3] (read-out: M2K) is 301 to 500 nM.
With `COc1ccc(CNCC(O)C(Cc2ccccc2)NC(=O)c2cccc(C(=O)N(C)Cc3nc(C)cs3)c2)cc1` (stereo not drawn) [N1-(3-hydroxy-4-(4-methoxybenzylamino)-1-phenylbutan-2-yl)-N3-methyl-N3-((4-methylthiazol-2-yl)methyl)isophthalamide], the IC50 in test [2] (setting [4]) lay within 1000 to 5000 nM. Besides, the Ki in test [3] (read-out: M2K) was more than 501 nM.
Regarding `COC1CCCC(CNCC(O)C(Cc2ccccc2)NC(=O)c2cc(C(=O)NC(C)c3ccccc3)cc(N(C)S(C)(=O)=O)c2)C1` (stereo not drawn) [N1-(3-hydroxy-4-((3-methoxycyclohexyl)methylamino)-1-phenylbutan-2-yl)-5-(N-methylmethylsulfonamido)-N3-(1-phenylethyl)isophthalamide], the IC50 in test [2] (setting [4]) is 1000 to 5000 nM. Moreover, the Ki in test [3] (read-out: M2K) is more than 501 nM.
Regarding `COc1cc(CCCNCC(O)C(Cc2ccccc2)NC(=O)c2cc(C(=O)NC(C)c3ccccc3)cc(N(C)S(C)(=O)=O)c2)ccc1C` (stereo not drawn) [N1-(3-hydroxy-4-(3-(3-methoxy-4-methylphenyl)propylamino)-1-phenylbutan-2-yl)-5-(N-methylmethylsulfonamido)-N3-(1-phenylethyl)isophthalamide], the IC50 in test [2] (setting [4]) lay in the range of 1000 to 5000 nM. The Ki in test [3] (read-out: M2K) is less than 300 nM.
For the compound `CC(NC(=O)c1cc(C(=O)NC(Cc2ccccc2)C(O)CNC(CO)c2ccccc2)cc(N(C)S(C)(=O)=O)c1)c1ccccc1` (stereo not drawn) [N1-(3-hydroxy-4-(2-hydroxy-1-phenylethylamino)-1-phenylbutan-2-yl)-5-(N-methylmethylsulfonamido)-N3-(1-phenylethyl)isophthalamide], the IC50 in test [2] (setting [4]) was less than 1000 nM. The Ki in test [3] (read-out: M2K) was less than 300 nM.
As to `COc1cccc(CNCC(O)C(Cc2cscn2)NC(=O)c2cc(C(=O)NC(C)c3ccccc3)cc(N(C)S(C)(=O)=O)c2)c1` (stereo not drawn) [N1-(3-hydroxy-4-(3-methoxybenzylamino)-1-(thiazol-4-yl)butan-2-yl)-5-(N-methylmethylsulfonamido)-N3-(1-phenylethyl)isophthalamide], the IC50 in test [2] (setting [4]) is less than 1000 nM. For the same compound, the Ki in test [3] (read-out: M2K) is less than 300 nM.
As to `Cc1ccc(CNCC(O)C(Cc2ccccc2)NC(=O)c2cc(C(=O)NC(C)c3ccccc3)cc(N(C)S(C)(=O)=O)c2)o1` (stereo not drawn) [N1-(3-hydroxy-4-((5-methylfuran-2-yl)methylamino)-1-phenylbutan-2-yl)-5-(N-methylmethylsulfonamido)-N3-(1-phenylethyl)isophthalamide], the Ki in test [1] and in test [3] (read-out: M2K) was less than 300 nM each time.
For `Cc1csc(CN(C)C(=O)c2cccc(C(=O)NC(Cc3ccccc3)C(O)CNCc3cncc(OCC(C)C)c3)c2)n1` (stereo not drawn) [N1-(3-hydroxy-4-((5-isobutoxypyridin-3-yl)methylamino)-1-phenylbutan-2-yl)-N3-methyl-N3-((4-methylthiazol-2-yl)methyl)isophthalamide], the IC50 in test [2] (setting [4]) is less than 1000 nM. The Ki in test [3] (read-out: M2K) is less than 300 nM.
Regarding `COc1cccc(CNCC(O)C(Cc2ccccc2)NC(=O)c2cccc(C(=O)N(C)Cc3nc(C)co3)c2)c1` (stereo not drawn) [N1-(3-hydroxy-4-(3-methoxybenzylamino)-1-phenylbutan-2-yl)-N3-methyl-N3-((4-methyloxazol-2-yl)methyl)isophthalamide], the IC50 in test [2] (setting [5]) was less than 1000 nM. The Ki in test [3] (M2K) is less than 300 nM.
As for `Cc1csc(CN(C)C(=O)c2cccc(C(=O)NC(Cc3ccccc3)C(O)CNCc3cccc(OC(F)(F)F)c3)c2)n1` (stereo not drawn) [N1-(3-hydroxy-1-phenyl-4-(3-(trifluoromethoxy)benzylamino)butan-2-yl)-N3-methyl-N3-((4-methylthiazol-2-yl)methyl)isophthalamide], the IC50 in test [2] (setting [4]) was less than 1000 nM. The Ki in test [3] (read-out: M2K) is less than 300 nM.
For `Cc1csc(CN(C)C(=O)c2cccc(C(=O)NC(Cc3ccccc3)C(O)CNCc3cncc(OC(C)C)c3)c2)n1` (stereo not drawn) [N1-(3-hydroxy-4-((5-isopropoxypyridin-3-yl)methylamino)-1-phenylbutan-2-yl)-N3-methyl-N3-((4-methylthiazol-2-yl)methyl)isophthalamide], in test [2] (setting [4]), the IC50 was less than 1000 nM. In test [3] (read-out: M2K), the Ki is less than 300 nM.
Taken in the same sequence, the figures for `CCN(Cc1nc(C)cs1)C(=O)c1cccc(C(=O)NC(Cc2ccccc2)C(O)CNCc2cccc(OC)c2)c1` (stereo not drawn) [N1-ethyl-N3-(3-hydroxy-4-(3-methoxybenzylamino)-1-phenylbutan-2-yl)-N1-((4-methylthiazol-2-yl)methyl)isophthalamide] were less than 1000 nM and less than 300 nM.
For “N3-(3-hydroxy-4-(3-methoxybenzylamino)-1-phenylbutan-2-yl)-4- or 6-methyl-N1-(1-phenylethyl)isophthalamide”, the Ki in test [1] was less than 300 nM. Moreover, the IC50 in test [2] (read-out: Cell, Aβ40, CHO cells over-expressing human APP695 (London and Swedish mutations)) was in the range of 1000 to 5000 nM.
`Cc1csc(C(C)NCC(O)C(Cc2ccccc2)NC(=O)c2cc(C(=O)NC(C)c3ccccc3)cc(N(C)S(C)(=O)=O)c2)n1` (stereo not drawn) [N1-(3-hydroxy-4-(1-(4-methylthiazol-2-yl)ethylamino)-1-phenylbutan-2-yl)-5-(N-methylmethylsulfonamido)-N3-(1-phenylethyl)isophthalamide]: in test [2] (setting [4]), the IC50 was less than 1000 nM. In addition, the Ki in test [3] (read-out: M2K) is less than 300 nM.

(Values after US7504420B2, “Compounds which inhibit beta-secretase activity and methods of use” (CoMentis, Inc., priority 2005, dated 2009).)
